Earlier results on two compounds are cited in patent US9725402B2, “Nitroso compounds as nitroxyl donors and methods of use thereof” (priority 2008, dated 2017).

In series [1] the test system is myocardial ischemia/reperfusion injury. The following applies: administered during ischemia and 5 minutes prior to reperfusion, anesthetized rabbits.
A further series has as its system breast cancer cells. The settings on record: mouse xenograft model.
A further series deals with pheochromocytoma. The settings on record: subcutaneous xenograft, dose nontoxic to nude mice.
Series [2] concerns cultured breast cancer cells.

Molecules are shown by their SMILES. Where only a bound is given, the exact number is not on record here.

Consider `[Na+].[Na+].[O-][N+]([O-])=NO` [Angeli's salt, sodium α-oxyhyponitrite], for which, in series [1], the myocardial ischemia/reperfusion injury result is on record as “increased myocardial ischemia/reperfusion injury”. Further, the tumor mass result with breast cancer cells is on record as “decreases tumor mass”. The “toxicity to cancer cells” value in the series with cancer cells (pH 7.4) is on record as “no toxicity”. In addition, the “cytotoxicity to cancer cells” value with cancer cells (weakly acidic solutions) was “strong cytotoxicity”. In the series on pheochromocytoma, the tumor growth entry is recorded as “inhibit tumor growth”. Besides, in series [2], the “proliferation of cultured breast cancer cells” value is listed as “inhibits the proliferation”.

On to `O=S(=O)(NO)c1ccccc1` [PA, N-hydroxybenzenesulfonamide], for which, for the setting “nitroxyl donor only at high pH”, the “pH at which compound is a nitroxyl donor” value is greater than 9. Further, the “species donated under physiological conditions” value (physiological conditions, oxidative pathway) is “nitric oxide donor”.
